BigSolDB 2.1

CC(=O)c1cccc(O)c1
solubility (mole fraction)
Conditions	in benzene	in ethanol	in ethyl acetate	in isobutanol	in isopropanol	in methanol	in methyl acetate	in n-butanol	in n-propanol	in water
289.15 K	0.00506	0.166	0.158	0.119	0.176	0.156	0.16	0.154	0.152	0.00073
292.15 K	0.00532	0.175	0.168	0.126	0.184	0.169	0.171	0.163	0.161	0.00078
295.15 K	0.00707	0.19	0.18	0.146	0.201	0.185	0.182	0.172	0.18	0.001
298.15 K	0.00848	0.209	0.191	0.166	0.22	0.203	0.197	0.189	0.199	0.00106
301.15 K	0.0122	0.225	0.199	0.184	0.236	0.22	0.209	0.203	0.211	0.00113
304.15 K	0.015	0.245	0.214	0.205	0.256	0.239	0.229	0.221	0.23	0.00154
307.15 K	0.0198	0.263	0.235	0.235	0.275	0.255	0.253	0.242	0.252	0.00172
310.15 K	0.0238	0.287	0.254	0.265	0.3	0.279	0.274	0.261	0.274	0.00199
313.15 K	0.0281	0.308	0.277	0.293	0.324	0.302	0.298	0.284	0.299	0.00245
316.15 K	0.0308	0.335	0.304	0.32	0.349	0.328	0.324	0.309	0.329	0.00291
319.15 K	0.037	0.361	0.333	0.348	0.372	0.349	0.346	0.335	0.36	0.00362
322.15 K	0.0453	0.391	0.364	0.38	0.401	0.383	0.376	0.368	0.395	0.00456
325.15 K	0.0614	0.42	0.384	0.421	0.431	0.409	0.407	0.402	0.425	0.00562
